Measured values as given in patent US20040063780A1, “Pharmaceutical preparations for treatment of type II diabetes and methods for treatment of type II diabetes” (CHUGAI SEIYAKU KABUSHIKI KAISHA, priority 2002, published 2004).
Values joined by “and” are separate entries in the source; they are usually repeats but may differ in a detail not shown here. Equal values may be shown once.

Assays:
db/db mice = test: Oral glucose tolerance test in db/db mice (blood glucose and blood lactic acid levels); assay type: in vivo, mice (C57BLKS/J-m+/+Lepr<db>(db/db)); conditions: subcutaneous, 30 min before oral glucose 3 g/kg, AUC up to 2 hours
From the text: In a glucose tolerance test with oral administration to db/db mice, approximately 50% suppression of blood glucose level in the db/db mice produces a level increase similar to that of healthy mice, and therefore a blood glucose reduction rate of at least 40%, and especially at least 50%, is preferred.
Measurement of blood glucose reduction rate in db/db mice by a glucose tolerance test with oral administration may be carried out by a publicly known method, but the following method is preferred. Specifically, 11- to 17-week-old female mice (C57BLKS/J-m+/+Lepr(db/db) ) are starved for 18-24 hours. A group of five or six mice is used for the test. Blood is sampled from the tail for measurement of the blood glucose levels before treatment as a control. After sampling, the biguanide derivative is dissolved in phosphate-buffered saline to a suitable concentration and subcutaneously administered at a dose of 5 ml/kg. As a control there are prepared mice administered only the solvent. Glucose is then administered orally at a dose of 3 g/6 ml/kg at 30 minutes after administration of the compound or solvent as an oral glucose tolerance test. Blood is sampled from the tail for measurement of the blood glucose levels 30 minutes, 1 hour and 2 hours after glucose administration. The blood glucose levels are measured using a New Blood Sugar Test (Roche Diagnostics) or a Glucose CII-Test Wako (Wako Pure Chemical Industries, Ltd.).
(§1) The blood glucose reduction rate is calculated according to the following formula.
Blood glucose reduction rate (%)=[(AUC for blood glucose increase level of solvent-administered group—AUC for blood glucose increase level of compound-administered group)/AUC for blood glucose increase level of solvent-administered group]×100
The AUC for blood glucose increase level represents the area of the increase portion in a graph of the blood glucose level changes after glucose administration plotted with respect to time, up to 2 hours after glucose administration, with the glucose level prior to glucose administration as the baseline. Specifically, the AUC for the blood glucose increase level may be calculated by the following formula, where A=blood glucose level before glucose administration, B=blood glucose level 30 minutes after glucose administration, C=blood glucose level 1 hour after glucose administration, D=blood glucose level 2 hours after glucose administration.
AUC for blood glucose increase level=0.5×((A+B)/2-A)+0.5×((B+C)/2-A)+1×((C+D)/2-A)
Measurement of blood glucose reduction rate and blood lactic acid levels by the aforementioned oral glucose tolerance test may be carried out by a publicly known method, and the measurement of the former may be carried out by the method described above, while the following method is preferred for measurement of the latter. Specifically, 11- to 17-week-old female mice (C57BLKS/J-m+/+Lepr(db/db)) are starved for 18-24 hours. A group of five or six mice is used for the test. Blood is sampled from the tail for measurement of the blood lactic acid levels before treatment as a control. After sampling, the biguanide derivative is dissolved in phosphate-buffered saline to a suitable concentration and subcutaneously administered at a dose of 5 ml/kg. As a control there are prepared mice administered only the solvent. Glucose is then administered orally at a dose of 3 g/6 ml/kg at 30 minutes after administration of the compound or solvent as an oral glucose tolerance test. Blood is sampled from the tail for measurement of the blood lactic acid levels 30 minutes, 1 hour and 2 hours after glucose administration. The blood lactic acid levels are measured using an “Asuka Sigma” (Sigma Diagnostics)
The blood lactic acid level increase rate is calculated according to the following formula. […]

KKAy mice = test: Hypoglycemic test by oral administration using KKAy mice; assay type: in vivo, mice (KKAy/Ta); conditions: AUC for blood glucose up to 6 hours after administration
From the text: The strength of the insulin sensitivity-enhancing effect may be evaluated based on the degree of blood glucose reduction rate with administration of the drug agent to KKAy mice. […] In hypoglycemic tests by oral administration using KKAy mice, approximately 45% suppression of blood glucose level in KKAy mice produces a level similar to healthy mice, and therefore a blood glucose reduction rate of 40-50% is preferred.
Measurement of blood glucose reduction rate in KKAy mice by a hypoglycemic test with oral administration may be carried out by a publicly known method, but the following method is preferred.
Specifically, a group of six 11-week-old male mice (KKAy/Ta) is used for the test. Blood is sampled from the tail for measurement of the blood glucose levels before treatment as a control. After sampling, the biguanide derivative is dissolved in a 0.5% CMC-Na (sodium carboxymethyl cellulose) solution to a suitable concentration and orally administered at a dose of 10 mL/kg. As a control there are prepared mice administered only the solvent. Blood is sampled from the tail to measure the blood glucose levels 1, 2, 4 and 6 hours after administration of the drug. The blood glucose levels are measured using a Glucose CII-Test Wako (Wako Pure Chemical Industries, Ltd.).
as §1
Blood glucose reduction rate (%)=[(AUC for blood glucose of control group—AUC for blood glucose of compound-administered group)/AUC for blood glucose of control group]×100
The AUC for blood glucose represents the area in a graph of the blood glucose level changes after administration of the drug plotted with respect to time, up to 6 hours after administration with a glucose level of 0 as the baseline. Specifically, the AUC for the blood glucose level may be calculated by the following formula, where A=blood glucose level before drug administration, B=blood glucose level 1 hour after drug administration, C=blood glucose level 2 hours after drug administration, D=blood glucose level 4 hours after drug administration, E=blood glucose level 6 hours after drug administration.
AUC for blood glucose level=1×((A+B)/2)+1×((B+C)/2)+2×((C+D)/2)+2×((D+E)/2)
A group of six 11-week-old male mice (KKAy/Ta) was used for the test. Blood was sampled from the tail for measurement of the blood glucose levels before treatment as a control. After sampling, furfuryl biguanide was dissolved in a 0.5% CMC-Na (sodium carboxymethyl cellulose) solution to a suitable concentration and orally administered at 10 mL/kg with the dosages shown in Table 1 (Examples 1-5). For comparison, metformin was also orally administered to mice in the doses shown in Table 1 (Comparative Examples 1-5). As a control there were prepared mice which had been orally administered the solvent alone. Blood was sampled from the tail to measure the blood glucose levels 1, 2, 4 and 6 hours after administration of the drug, and the blood glucose reduction rates were calculated by the formula given above. The blood glucose levels were measured using a Glucose CIT-Test Wako (Wako Pure Chemical Industries, Ltd.).

[1] = Mus musculus, sc, 2 h, 75 mg/kg, read-out: Blood glucose reduction rate (%)
[2] = Mus musculus, sc, 2 h, read-out: Blood glucose reduction rate (%)
[3] = Mus musculus, sc, 2 h, 200 mg/kg, read-out: Blood glucose reduction rate (%)

SMILES: Cc1ccc(CNC(=N)NC(=N)N)o1 [1-(5-methylfurfuryl) biguanide]
- inhibition in vivo at 25 mg/kg (db/db mice; Mus musculus, sc, 2 h, 25 mg/kg, read-out: Blood glucose reduction rate (%)): 24.7%
- inhibition in vivo at 50 mg/kg (db/db mice; Mus musculus, sc, 2 h, 50 mg/kg, read-out: Blood glucose reduction rate (%)): 46.1%
- inhibition in vivo at 75 mg/kg (db/db mice; [1]): 54.7%
- inhibition in vivo at 100 mg/kg (db/db mice; [2]): 86.6%
- Blood lactic acid level increase rate (%) (db/db mice; 25 mg/kg): 3.9%
- Blood lactic acid level increase rate (%) (db/db mice; 50 mg/kg): 1.3%
- Blood lactic acid level increase rate (%) (db/db mice; 75 mg/kg): 14.7%

SMILES: CSCc1ccoc1CNC(=N)NC(=N)N [1-[(3-Methylthiomethylfuran-2-yl)methyl] Biguanide]
- inhibition in vivo at 150 mg/kg (db/db mice; [2]): 47.3%

SMILES: Cc1cc(CNC(=N)NC(=N)N)oc1C [1-[(4,5-Dimethylfuran-2-yl)methyl] Biguanide]
- inhibition in vivo at 75 mg/kg (db/db mice; [1]): 52%

SMILES: CSc1coc(CNC(=N)NC(=N)N)c1 [1-[(4-Methylthiofuran-2-yl)methyl] Biguanide]
- inhibition in vivo at 75 mg/kg (db/db mice; [1]): 44.1%
- inhibition in vivo at 100 mg/kg (db/db mice; [2]): 47.5%
- inhibition in vivo at 150 mg/kg (db/db mice; [2]): 58.1%
- inhibition in vivo at 200 mg/kg (db/db mice; [3]): 73.9%

SMILES: CSCc1ccc(CNC(=N)NC(=N)N)o1 [1-[(5-Methylthiomethylfuran-2-yl)methyll] Biguanide]
- inhibition in vivo at 75 mg/kg (db/db mice; [1]): 46%

SMILES: CCc1ccc(CNC(=N)NC(=N)N)o1 [1-[(5-ethylfuran-2-yl)methyl] biguanide, 1-[(5-Ethylfuran-2-yl)methyl] Biguanide]
- inhibition in vivo at 75 mg/kg (db/db mice; [1]): 71.3%

SMILES: CC(C)(C)c1ccc(CNC(=N)NC(=N)N)o1 [1-[(5-tert-butylfuran-2-yl)methyl] Biguanide]
- inhibition in vivo at 75 mg/kg (db/db mice; [1]): 62.1%

SMILES: N=C(N)NC(=N)NCc1ccco1 [Furfuryl biguanide, Furfuryl Biguanide]
- Blood glucose reduction rate (%) (KKAy mice; 25.0 mg/kg): 8.7%
- Blood glucose reduction rate (%) (KKAy mice; 50.0 mg/kg): 15.2%
- Blood glucose reduction rate (%) (KKAy mice; 100.0 mg/kg): 29.4%
- Blood glucose reduction rate (%) (KKAy mice; 200.0 mg/kg): 43.9%
- Blood glucose reduction rate (%) (KKAy mice; 300.0 mg/kg): 48.0%
- inhibition in vivo at 20 mg/kg (db/db mice; Mus musculus, sc, 2 h, 20.0 mg/kg, read-out: Blood glucose reduction rate (%)): 46.9%
- inhibition in vivo at 40 mg/kg (db/db mice; Mus musculus, sc, 2 h, 40.0 mg/kg, read-out: Blood glucose reduction rate (%)): 52.3%
- inhibition in vivo at 75 mg/kg (db/db mice; [1]): 60.6%
- inhibition in vivo at 80 mg/kg (db/db mice; Mus musculus, sc, 2 h, 80.0 mg/kg, read-out: Blood glucose reduction rate (%)): 68.7%
- Blood lactic acid level increase rate (%) (db/db mice; 20.0 mg/kg): 7.0%
- Blood lactic acid level increase rate (%) (db/db mice; 40.0 mg/kg): 16.7%
- Blood lactic acid level increase rate (%) (db/db mice; 75 mg/kg): 22.0%
- Blood lactic acid level increase rate (%) (db/db mice; 80.0 mg/kg): 11.2%

SMILES: CN(C)C(=N)N=C(N)N [Metformin, reference compound]
- Blood glucose reduction rate (%) (KKAy mice; 150.0 mg/kg): 11.6%
- Blood glucose reduction rate (%) (KKAy mice; 300.0 mg/kg): 6.4%
- Blood glucose reduction rate (%) (KKAy mice; 600.0 mg/kg): 21.8%
- Blood glucose reduction rate (%) (KKAy mice; 900.0 mg/kg): 32.7%
- Blood glucose reduction rate (%) (KKAy mice; 1350.0 mg/kg): 46.4%
- inhibition in vivo at 100 mg/kg (db/db mice; [2]): 19.4%
- inhibition in vivo at 200 mg/kg (db/db mice; [3]): 37.5%
- Blood lactic acid level increase rate (%) (db/db mice; 200 mg/kg, 200 mg/kg): 36.8% and 42.7%
- Blood lactic acid level increase rate (%) (db/db mice; 300 mg/kg, 300 mg/kg): 133.7% and 155.9% and 138.9% and 145.9%
